Measured values reported in patent publication US10675286B2, “Heterocyclic compounds and uses thereof” (Infinity Pharmaceuticals, Inc., priority 2014, dated 2020).
“Also recorded” adds a separate entry of the source. Read-outs that look alike come from different tables or passages of the source.

Tests used:
4T1 mammary carcinoma = experiment: 4T1 breast cancer model (orthotopic / subcutaneous), tumor growth and IHC; assay type: in vivo, mouse
Procedure: Plasma is collected for pharmokinetic (PK) analysis.
Luciferin measurements were taken twice a week.
Immunohistochemistry was performed to determine the distribution of immune cells within the tumor. In particular, CD11b myeloid cells were examined, as were regulatory vs. effector T cells (CD3, CD4, CD8, FoxP3).

[1] = tested on: CXCL12-induced T cell migration; experiment: CXCL12-induced T-cell migration in CLL PBMCs (transwell); assay type: cell-based; conditions: Homo sapiens
Procedure: Specifically, the material used were media (RPMI+0.5% Fetal Bovine Serum+Pen/Strep), total CLL PBMCs (AllCells), CoStar 24-transwell plates ([…]) #3421, BD Cytofix Fixation Buffer (#554655), BD FBS Stain Buffer (BD Biosciences, 554656), Deep 96-well plate (Axygen, P-2ML-SQ-C), rhCXCL12 (R&D, 350-NS-050), CD-19 APC Cy7 (BD #348794 1:20), CD3-PerCPCy5.5 (BD #560835, 1:20), CD5-PE (Biolegend #300608, 1:5), CD4-FITC (BD #561842, 1:20), and CD8-APC (BD #561953, 1:20).
Total CLL human PBMCs were preincubated with Compound AA or BB in media for 45 minutes at 37° C. […] After the 45 minutes of compound preincubation, 500-750K CLL PBMCs were placed in the upper chamber of the transwell insert in a total volume of 100 uL. The cells were allowed to migrate for 2-4 hours at 37° C. The inserts were removed, and 550 uL media from lower chamber were transferred into a deep 96-well plate. The cells were spun at 1280 rpm for 5 minutes and flick media. The cells were resuspended in 400 uL BD Cytofixation buffer and incubated at RT for 10 minutes. 1 mL BD FBS stain buffer was added. The cells were spun at 1280 rpm and fixation buffer was disposed. The cells were resuspended in 100 uL of CD3,4,8,5,19 antibody cocktail made up in BD FBS stain buffer, which was then incubated at room temperature in the dark for 30-60 minutes. 1 mL BD FBS stain buffer was added to each well, which was then spun and flicked. The cells were resuspended in 150 uL FBS stain buffer and transferred to FACS tubes already containing 150 uL FBS stain buffer. Each sample was read on the FACS for 25 seconds. Gate on CD3, 4, 8 and CD19/5 subpopulations individually and calculate average migration index from triplicate samples. See e.g., Borge et al., haematologica 2010, 95(5): 768-775; de Rooij et al., Blood 2012, 119: 2590-2594.

[2] = tested on: spleen T cell proliferation; experiment: Ex vivo T-cell proliferation assay with tumor-derived cells; assay type: cell-based; conditions: compared to tumor derived cells from vehicle treated mice
[3] = tested on: LPS-induced neutrophil influx into BALF; experiment: LPS-induced neutrophilia in rats, oral administration; assay type: in vivo; conditions: rat, p.o., 4 hours post-LPS challenge; dose dependent
Procedure: This study also includes assessment of the exposure to the compounds in plasma and lung tissues.
Ref C is budesonide p.o. The compound was administered p.o. and about 1 hour later, LPS was administered intra-tracheally and plasma was collected. After about 5 hours, plasma and bronchoalveolar lavage samples were collected.

[4] = orthotopic 4T1, 7.5 mg/kg PO once daily 3 weeks

C[C@H](NC(=O)c1c(N)nn2cccnc12)c1cc2cccc(C#Cc3cnn(C)c3)c2c(=O)n1-c1ccccc1 [Compound BB]
Tumor growth (FIG. 35) (4T1 mammary carcinoma; 4T1, Compound BB alone 15 mg/kg once daily 2 weeks): achieved a reduction in tumor growth
CD11b+ myeloid cell staining in viable tumor regions (IHC, FIG. 37A) (4T1 mammary carcinoma; 4T1 tumors, day 13, vs vehicle): decrease in CD11b+ myeloid cell staining
Total luciferase flux (FIG. 33B) (4T1 mammary carcinoma; [4]): reduced total luciferase flux
Tumor growth (FIG. 33A) (4T1 mammary carcinoma; [4]): reduced tumor growth
Time the anti-tumor effect was maintained after discontinuation of treatment (4T1 mammary carcinoma; subcutaneous 4T1): at least 6 days
Tumor growth (FIG. 34, FIG. 36) (4T1 mammary carcinoma; subcutaneous 4T1, single agent): demonstrated single agent activity
EC50 ([1]; T-cell subset CD3+, read-out: EC50 (nM), CXCL12 induced T-cell migration): 17 ± 17 nM
EC50 ([1]; T-cell subset CD4+, read-out: EC50 (nM), CXCL12 induced T-cell migration): 20 ± 21 nM
EC50 ([1]; T-cell subset CD8+, read-out: EC50 (nM), CXCL12 induced T-cell migration): 13 ± 15 nM
EC50 ([1]; read-out: EC50, inhibition of CXCL12-induced CD3+ T cell migration (FIG. 8)): 10 nM
inhibition of spleen T cell proliferation by cells isolated from tumors of treated mice [2]: less inhibitory
Neutrophil in bronchoalveolar lavage fluid (BALF) [3]: reduced neutrophil in bronchoalveolar lavage fluid (BALF); also recorded: more profound effect on neutrophil influx
